# Measured values published in publication PMC5810560 (Chemico-biological interactions, 2017).
# Where “and” joins values, the source holds several entries; their conditions need not be identical. Identical values can stand only once.
# How the values were obtained:
# [1] = mice dosed with 80 mg/kg; ref Radic et al., 2012; cited from earlier work
# [2] = tested on: Human cerebral microvascular cells (HCMEC/D3); experiment: Brain endothelial cell traversal; details: 100 μM in HBSS, apical to basolateral
# [3] = RS194B plasma pharmacokinetics; details: for AUC0-t: t = 24 h
# [4] = Renal clearance: urine radioactivity and HPLC of urine; details: for percent of the administered dose in urine: guinea pig
# [5] = Parallel artificial membrane permeability assay; details: 100 μM in HBSS
# p-gp (MDR1) = p-gp (MDR1) (Homo sapiens, UniProt P08183); experiment: MDR1 efflux assessment in MDR1-MDCK and MDCK parent cells; details: MDR1-MDCK vs MDCK cells, 100 μM; NFR > 1 = possible p-gp substrate
# [6] = RS194B biodistribution / brain penetration in perfused tissues; details: guinea pig, IM 50 mg/kg
# [7] = dose increase from 10 to 200 mg/kg (20-fold), IV
# [8] = guinea pig plasma, single IM dose 50 mg/kg
# [9] = guinea pig plasma, single IV dose 10 mg/kg
# [10] = guinea pig plasma, single IV dose 50 mg/kg
# [11] = guinea pig plasma, single IV dose 100 mg/kg
# [12] = guinea pig plasma, single IV dose 200 mg/kg
# Sequence of p-gp (MDR1) (P08183 whole entry, looked up, the tested form may be a part): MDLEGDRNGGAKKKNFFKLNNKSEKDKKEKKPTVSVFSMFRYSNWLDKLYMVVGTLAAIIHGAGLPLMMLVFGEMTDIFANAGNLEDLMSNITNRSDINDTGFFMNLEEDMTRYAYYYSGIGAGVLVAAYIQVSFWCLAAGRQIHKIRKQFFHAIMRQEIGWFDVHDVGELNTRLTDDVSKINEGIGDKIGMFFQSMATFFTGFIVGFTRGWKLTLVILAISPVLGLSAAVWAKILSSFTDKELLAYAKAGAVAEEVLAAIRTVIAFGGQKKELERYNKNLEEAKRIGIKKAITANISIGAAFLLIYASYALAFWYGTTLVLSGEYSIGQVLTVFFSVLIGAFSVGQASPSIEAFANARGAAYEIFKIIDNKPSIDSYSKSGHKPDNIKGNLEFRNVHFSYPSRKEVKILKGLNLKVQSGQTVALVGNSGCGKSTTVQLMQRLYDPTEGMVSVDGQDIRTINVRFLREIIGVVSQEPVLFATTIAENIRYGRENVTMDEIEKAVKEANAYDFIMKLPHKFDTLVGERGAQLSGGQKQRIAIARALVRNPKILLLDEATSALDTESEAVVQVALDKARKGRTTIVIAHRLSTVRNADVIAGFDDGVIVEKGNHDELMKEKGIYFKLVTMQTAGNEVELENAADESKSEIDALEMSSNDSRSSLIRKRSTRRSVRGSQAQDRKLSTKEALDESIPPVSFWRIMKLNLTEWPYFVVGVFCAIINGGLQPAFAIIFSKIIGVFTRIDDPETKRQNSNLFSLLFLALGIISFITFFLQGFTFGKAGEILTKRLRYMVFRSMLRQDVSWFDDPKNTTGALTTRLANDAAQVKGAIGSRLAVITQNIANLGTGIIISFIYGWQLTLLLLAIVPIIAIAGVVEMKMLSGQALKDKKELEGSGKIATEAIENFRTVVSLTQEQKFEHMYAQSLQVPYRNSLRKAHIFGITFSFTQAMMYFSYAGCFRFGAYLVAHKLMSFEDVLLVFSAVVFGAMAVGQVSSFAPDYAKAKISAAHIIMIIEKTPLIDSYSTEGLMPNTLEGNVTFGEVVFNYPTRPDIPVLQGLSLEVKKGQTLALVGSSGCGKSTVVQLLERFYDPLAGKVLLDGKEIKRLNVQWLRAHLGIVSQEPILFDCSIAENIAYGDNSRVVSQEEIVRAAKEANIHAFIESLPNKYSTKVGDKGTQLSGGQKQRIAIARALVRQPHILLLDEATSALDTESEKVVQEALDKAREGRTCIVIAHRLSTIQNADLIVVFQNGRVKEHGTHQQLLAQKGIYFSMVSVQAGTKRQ
smiles,measurement,setting,value
O=C(C=NO)NCCN1CCCCCC1 [RS194B],brain/plasma ratio,[1],0.3
same,permeability across HCMEC/D3 monolayer relative to controls,[2],"permeability was improved over that of 2-PAM, but was lower than that of a known permeable compound"
same,increase in mean AUC0-t,[3]; [7],32 fold
same,increase in mean C0,[3]; [7],25 fold
same,"power regression slope, AUC0-t vs dose",[3]; dose range 10-200 mg/kg IV,1.13
same,"power regression slope, C0 vs dose",[3]; dose range 10-200 mg/kg IV,1.09
same,tmax,"[3]; guinea pig plasma, IM 50 mg/kg",0.5 h
same,"mean apparent distribution half-life (t1/2α), range","[3]; guinea pig plasma, across four IV doses 10-200 mg/kg",0.78 to 1.5 h
same,AUC0-inf,[3]; [8],78740 ± 3750 ng·h/mL
same,C0,[3]; [8],24900 ± 1440 ng/mL
same,CL,[3]; [8],10.697 ± 0.522 mL/min/kg
same,T1/2;β,[3]; [8],8.53 ± 1.49 h
same,Vd,[3]; [8],7.729 ± 1.08899 L/kg
same,t1/2α,[3]; [8],0.87 ± 0.13 h
same,AUC0-t,[3]; [8],73500 ± 2410 ng·h/mL
same,AUC0-inf,[3]; [9],17530 ± 1350 ng·h/mL
same,C0,[3]; [9],6230 ± 150 ng/mL
same,CL,[3]; [9],9.8418 ± 0.8645 mL/min/kg
same,T1/2;β,[3]; [9],10.41 ± 1.54 h
same,Vd,[3]; [9],8.67515 ± 1.99977 L/kg
same,t1/2α,[3]; [9],0.79 ± 0.07 h
same,AUC0-t,[3]; [9],15270 ± 1230 ng·h/mL
same,C0,[3]; [10],42770 ± 2500 ng/mL
same,CL,[3]; [10],9.1108 ± 0.4573 mL/min/kg
same,T1/2;β,[3]; [10],10.68 ± 1.94 h
same,Vd,[3]; [10],8.37818 ± 1.44868 L/kg
same,t1/2α,[3]; [10],1.03 ± 0.28 h
same,AUC0-t,[3]; [10],83800 ± 4050 ng·h/mL
same,AUC0-inf,[3]; [11],223600 ± 14560 ng·h/mL
same,C0,[3]; [11],93180 ± 3400 ng/mL
same,CL,[3]; [11],7.5982 ± 0.4475 mL/min/kg
same,T1/2;β,[3]; [11],12.87 ± 2.16 h
same,Vd,[3]; [11],8.32203 ± 1.44265 L/kg
same,t1/2α,[3]; [11],0.78 ± 0.05 h
same,AUC0-t,[3]; [11],188050 ± 11100 ng·h/mL
same,AUC0-inf,[3]; [12],530830 ± 57860 ng·h/mL
same,C0,[3]; [12],157660 ± 4340 ng/mL
same,CL,[3]; [12],6.6752 ± 0.7335 mL/min/kg
same,T1/2;β,[3]; [12],9.75 ± 1.83 h
same,Vd,[3]; [12],5.80208 ± 1.32987 L/kg
same,t1/2α,[3]; [12],1.50 ± 0.20 h
same,AUC0-t,[3]; [12],488520 ± 63160 ng·h/mL
same,plasma t1/2,"[3]; guinea pig, as summarised in abstract",~1 h
same,radioactivity recovered in the urine,"[4]; first 4 h post dose, three highest dose concentrations",over 60%
same,metabolic stability (HPLC of 0-4 h urine),"[4]; guinea pig urine, one radioactive peak matching RS194B standard",metabolically stable
same,percent of the administered dose in urine,"[4]; IV 10 mg/kg, first 24 h",11-28%
same,percent of the administered dose in urine,"[4]; IV 50 mg/kg, first 24 hr post dose",49-77%
same,percent of the administered dose in urine,"[4]; IV 100 mg/kg, first 24 hr post dose",46-68%
same,percent of the administered dose in urine,"[4]; IV 200 mg/kg, first 24 hr post dose",59-79%
same,"effective permeability (Peff), PAMPA","[5]; five hours, 25°C, vs threshold for moderate permeability",< 2 ×10⁻⁶ cm/s
same,PAMPA diffusion relative to controls,[5]; vs 2-PAM and diazepam positive control,"increased diffusion relative to the 2-PAM standard of care, rate of permeation was dramatically lower than the diazepam positive control"
same,net flux ratio (NFR),p-gp (MDR1),≤ 1
same,brain/ plasma,[6]; 0.08 hr (brain Cmax),0.058 and 0.06 ± 0.002
same,brain/ plasma,[6]; 0.25 hr,0.04 ± 0.006
same,brain/ plasma,[6]; 0.5 hr,0.03 ± 0.002
same,brain/ plasma,[6]; 1 hr,0.02 ± 0.010
same,brain/ plasma,[6]; 2 hr,0.02 ± 0.001
same,brain/ plasma,[6]; 4 hr,0.06 ± 0.005
same,brain/ plasma,[6]; 8 hr,0.08 ± 0.007
same,brain/ plasma,[6]; 24 hr,0.19 ± 0.045
same,"Tissue level at Cmax, percent of administered dose, Brain",[6]; total tissue weight,0.02 ± 0.005% of administered dose
same,"Tissue level at Cmax, percent of administered dose, Heart",[6]; total tissue weight,0.07 ± 0.02% of administered dose
same,"Tissue level at Cmax, percent of administered dose, Kidney",[6]; total tissue weight,2.87 ± 0.48% of administered dose
